Values of other authors in patent US7091182B2, “Method for assisting in differential diagnosis and treatment of autistic syndromes” (Repligen Corporation, priority 1997, dated 2006).

Test system: autistic patients
Details: cited from earlier work

O=C1CC[C@@]2(O)[C@H]3Cc4ccc(O)c5c4[C@@]2(CCN3CC2CC2)[C@H]1O5 [naltrexone]
social behavior (double-blinded studies): failed to produce significant changes
positive response (open trial in autistic children): 8 to 10 children were judged to show a positive response
